Experimental data reported in patent publication US7786127B2, “Benzimidazole thiophene compounds” (Glaxo SmithKline LLC, priority 2005, dated 2010).

Tests used:
Assay type in all cases: cell-based
HCT116 = test: Methylene blue growth inhibition assay, HCT116; settings: Homo sapiens, HCT-116, 72 h
Experimental: (§1) Generally, exponentially growing cell lines of different tumor origins, cultured in appropriate media containing 10% fetal bovine serum at 37° C. in a 5% CO2 incubator were plated at low density (less than 2000 cells/well) in 96-well plates. Twenty four hours post-plating, cells were treated with different concentrations of test compounds ranging from 10 uM to 0.04 nM. Several wells were left untreated as a control. Seventy two hours post-treatment, cell numbers were determined using 10 μl per well of methylene blue (Sigma M9140) (0.5% in 50:50 Ethanol:water). […] Plates were read on a microplate reader, measuring the OD at 620 nm. […]
(§2) In one assay, normal human foreskin fibroblasts (HFF), human colon (HCT116, RKO), lung (H460, A549) and breast (MCF7) tumor cell lines were cultured in high glucose DMEM (Life Technologies) containing 10% fetal bovine serum (FBS) at 37° C. in a humidified 5% CO2, 95% air incubator. Cells were harvested using trypsin/EDTA, counted using a haemocytometer, and plated in 100 μL of culture media per well, at the following densities, in a 96-well tissue culture plate (Falcon 3075): HFF 5,000 cells/well, HCT116 3,000 cells/well, RKO 2,500 cells/well, H460 2,500 cells/well, A549 5,000 cells/well, MCF7 4,000 cells/well. […] Optical density at 620 nm was measured on a microplate reader. […]

[1] = tested on: normal human foreskin fibroblasts (HFF); test: Methylene blue growth inhibition assay, HFF; settings: Fibroblast, 72 h
Experimental: as §1, §2

RKO = test: Methylene blue growth inhibition assay, RKO; settings: Homo sapiens, 72 h
Experimental: as §1, §2

H460 = test: Methylene blue growth inhibition assay, H460; settings: Homo sapiens, NCI-H460, 72 h
Experimental: as §1, §2

MCF7 = test: Methylene blue growth inhibition assay, MCF7; settings: Homo sapiens, 72 h
Experimental: as §1, §2

A549 = test: Methylene blue growth inhibition assay, A549; settings: Homo sapiens, 72 h
Experimental: as §1, §2

C[C@@H](Oc1cc(-n2cnc3ccc(OC4CCN(C)CC4)cc32)sc1C(N)=O)c1ccccc1C(F)(F)F [Example 7, 5-{6-[(1-Methyl-4-piperidinyl)oxy]-1H-benzimidazol-1-yl}-3-({(1R)-1-[2-(trifluoromethyl)phenyl]ethyl}oxy)-2-thiophenecarboxamide]
IC50 (HCT116): < 100 nM
IC50 [1]: 100 to 1000 nM
IC50 (RKO): < 100 nM
IC50 (H460): < 100 nM
IC50 (MCF7): < 100 nM
IC50 (A549): < 100 nM

C[C@@H](Oc1cc(-n2cnc3ccc(OC4CCN(C)CC4)cc32)sc1C(N)=O)c1ccccc1Cl [Example 8, 3-{[(1R)-1-(2-Chlorophenyl)ethyl]oxy}-5-{6-[(1-methyl-4-piperidinyl)oxy]-1H-benzimidazol-1-yl}-2-thiophenecarboxamide]
IC50 (HCT116): < 100 nM
IC50 [1]: < 100 nM
IC50 (RKO): < 100 nM
IC50 (H460): < 100 nM
IC50 (A549): < 100 nM
